Measured values reported in PubChem BioAssay AID1963831 (Molecular Pharmacology Branch, DTP, NCI, 2024).

System: 889142-216-R-J1-PDC complex spheroid viability
Assay: Anticancer human tumor 889142-216-R-J1-PDC patient-derived bladder carcinoma cell line growth inhibition [POLQ]
Settings: for IC50: curve of first compound; for viability, T/C: stronger effect = lower value
How it was run: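 Complex spheroid viability model combining PDC tumour cells with endothelial (HUVEC) and MSC stromal cells. Novobiocin, ART-558 or RP6685 were tested singly and in combination with standard and investigational anticancer drugs. Each was titrated in half-log steps from near clinical Cmax, or from 10 microM where Cmax was unknown.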

[1] = second compound 0.0316 µM, first compound 0.0316 µM
[2] = second compound 0.0316 µM, first compound 0.1 µM
[3] = second compound 0.0316 µM, first compound 0.316 µM
[4] = second compound 0.0316 µM, first compound 1 µM
[5] = second compound 0.0316 µM, first compound 3.16 µM
[6] = second compound 0.0316 µM, first compound 10 µM
[7] = second compound 0.1 µM, first compound 0.0316 µM
[8] = second compound 0.1 µM, first compound 0.1 µM
[9] = second compound 0.1 µM, first compound 0.316 µM
[10] = second compound 0.1 µM, first compound 1 µM
[11] = second compound 0.1 µM, first compound 3.16 µM
[12] = second compound 0.1 µM, first compound 10 µM
[13] = second compound 0.316 µM, first compound 0.0316 µM
[14] = second compound 0.316 µM, first compound 0.1 µM
[15] = second compound 0.316 µM, first compound 0.316 µM
[16] = second compound 0.316 µM, first compound 1 µM
[17] = second compound 0.316 µM, first compound 3.16 µM
[18] = second compound 0.316 µM, first compound 10 µM
[19] = second compound 1 µM, first compound 0.0316 µM
[20] = second compound 1 µM, first compound 0.1 µM
[21] = second compound 1 µM, first compound 0.316 µM
[22] = second compound 1 µM, first compound 1 µM
[23] = second compound 1 µM, first compound 3.16 µM
[24] = second compound 1 µM, first compound 10 µM
[25] = second compound 3.16 µM, first compound 0.0316 µM
[26] = second compound 3.16 µM, first compound 0.1 µM
[27] = second compound 3.16 µM, first compound 0.316 µM
[28] = second compound 3.16 µM, first compound 1 µM
[29] = second compound 3.16 µM, first compound 3.16 µM
[30] = second compound 3.16 µM, first compound 10 µM
[31] = second compound 10 µM, first compound 0.0316 µM
[32] = second compound 10 µM, first compound 0.1 µM
[33] = second compound 10 µM, first compound 0.316 µM
[34] = second compound 10 µM, first compound 1 µM
[35] = second compound 10 µM, first compound 3.16 µM
[36] = second compound 10 µM, first compound 10 µM
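Note: spheroids exposed to compounds for seven days.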
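Throughout, for viability, T/C: 100% = DMSO vehicle control viability.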

CC(C)n1c(=O)n(C)c2cnc3cc(F)c(-c4ccc(OCCCN5CCCCC5)nc4)cc3c21 + COC1C(OC(N)=O)C(O)C(Oc2ccc3c(O)c(NC(=O)c4ccc(O)c(CC=C(C)C)c4)c(=O)oc3c2C)OC1(C)C
IC50 (second compound 0.0316 µM): > 10 µM
IC50 (second compound 0.1 µM): 6.09 µM
IC50 (second compound 0.316 µM): > 10 µM
IC50 (second compound 1 µM): > 10 µM
IC50 (second compound 3.16 µM): 8.69 µM
IC50 (second compound 10 µM): > 10 µM
viability, T/C [1]: 91.2%
viability, T/C [2]: 86.3%
viability, T/C [3]: 78.3%
viability, T/C [4]: 86.5%
viability, T/C [5]: 54.6%
viability, T/C [6]: 52.8%
viability, T/C [7]: 88.6%
viability, T/C [8]: 105%
viability, T/C [9]: 81.7%
viability, T/C [10]: 85.8%
viability, T/C [11]: 60.4%
viability, T/C [12]: 41.5%
viability, T/C [13]: 105%
viability, T/C [14]: 71.1%
viability, T/C [15]: 85.8%
viability, T/C [16]: 76.8%
viability, T/C [17]: 58.9%
viability, T/C [18]: 56.8%
viability, T/C [19]: 113%
viability, T/C [20]: 86.2%
viability, T/C [21]: 80.4%
viability, T/C [22]: 71.2%
viability, T/C [23]: 67.1%
viability, T/C [24]: 52.2%
viability, T/C [25]: 92.4%
viability, T/C [26]: 106%
viability, T/C [27]: 88.7%
viability, T/C [28]: 71.4%
viability, T/C [29]: 61.6%
viability, T/C [30]: 46.9%
viability, T/C [31]: 94.4%
viability, T/C [32]: 92.8%
viability, T/C [33]: 81.3%
viability, T/C [34]: 88%
viability, T/C [35]: 65.9%
viability, T/C [36]: 53.7%

CC1COCCN1c1cc(-c2ccnn2C)c2ccnc(-c3ccn[nH]3)c2n1 (stereo unspecified) + COC1C(OC(N)=O)C(O)C(Oc2ccc3c(O)c(NC(=O)c4ccc(O)c(CC=C(C)C)c4)c(=O)oc3c2C)OC1(C)C
IC50 (second compound 0.0316 µM): 0.213 µM
IC50 (second compound 0.1 µM): 0.162 µM
IC50 (second compound 0.316 µM): 0.169 µM
IC50 (second compound 1 µM): 0.293 µM
IC50 (second compound 3.16 µM): 0.337 µM
IC50 (second compound 10 µM): 0.287 µM
viability, T/C [1]: 97.8%
viability, T/C [2]: 56.2%
viability, T/C [3]: 46.4%
viability, T/C [4]: 45%
viability, T/C [5]: 31.5%
viability, T/C [6]: 30%
viability, T/C [7]: 79%
viability, T/C [8]: 53.3%
viability, T/C [9]: 40.4%
viability, T/C [10]: 41.7%
viability, T/C [11]: 34.1%
viability, T/C [12]: 25.9%
viability, T/C [13]: 90.5%
viability, T/C [14]: 55.5%
viability, T/C [15]: 39.6%
viability, T/C [16]: 45.2%
viability, T/C [17]: 38.2%
viability, T/C [18]: 28.6%
viability, T/C [19]: 77.2%
viability, T/C [20]: 58.6%
viability, T/C [21]: 48%
viability, T/C [22]: 40.9%
viability, T/C [23]: 36.2%
viability, T/C [24]: 25.9%
viability, T/C [25]: 71.5%
viability, T/C [26]: 59.5%
viability, T/C [27]: 48.8%
viability, T/C [28]: 42.8%
viability, T/C [29]: 35.3%
viability, T/C [30]: 26.4%
viability, T/C [31]: 79%
viability, T/C [32]: 55.8%
viability, T/C [33]: 49.7%
viability, T/C [34]: 43.6%
viability, T/C [35]: 34.2%
viability, T/C [36]: 27.5%

COc1ccc([C@@H](O)c2cc(-c3ncnc4cc(N5CCOCC5)ccc34)c(F)cc2Cl)nn1 + COC1C(OC(N)=O)C(O)C(Oc2ccc3c(O)c(NC(=O)c4ccc(O)c(CC=C(C)C)c4)c(=O)oc3c2C)OC1(C)C
IC50 (second compound 0.0316 µM): 4.25 µM
IC50 (second compound 0.1 µM): > 10 µM
IC50 (second compound 0.316 µM): 6.29 µM
IC50 (second compound 1 µM): 2.87 µM
IC50 (second compound 3.16 µM): 3.64 µM
IC50 (second compound 10 µM): 4.53 µM
viability, T/C [1]: 88.8%
viability, T/C [2]: 88.3%
viability, T/C [3]: 63.9%
viability, T/C [4]: 63%
viability, T/C [5]: 55.6%
viability, T/C [6]: 41.5%
viability, T/C [7]: 104%
viability, T/C [8]: 125%
viability, T/C [9]: 76.2%
viability, T/C [10]: 62.7%
viability, T/C [11]: 55.7%
viability, T/C [12]: 35.9%
viability, T/C [13]: 92.2%
viability, T/C [14]: 104%
viability, T/C [15]: 87%
viability, T/C [16]: 79.1%
viability, T/C [17]: 63.4%
viability, T/C [18]: 41.4%
viability, T/C [19]: 90.3%
viability, T/C [20]: 112%
viability, T/C [21]: 86.7%
viability, T/C [22]: 59.8%
viability, T/C [23]: 60.3%
viability, T/C [24]: 37.3%
viability, T/C [25]: 81.3%
viability, T/C [26]: 120%
viability, T/C [27]: 77.6%
viability, T/C [28]: 66.9%
viability, T/C [29]: 56.9%
viability, T/C [30]: 39.8%
viability, T/C [31]: 98.2%
viability, T/C [32]: 82.1%
viability, T/C [33]: 104%
viability, T/C [34]: 74.8%
viability, T/C [35]: 59.6%
viability, T/C [36]: 32.9%
